The values that follow come from patent publication US7989464B2, “mGluR1 antagonists as therapeutic agents” (Schering Corporation, priority 2004, dated 2011).

Read-outs that look alike come from different tables or passages of the source. Bounds are passed on as bounds.

The test has as its target T1, hmGluR1 receptor (Homo sapiens, UniProt Q13255).
T1 construct: expressed in transfected cells
Description: IC50 determination: intracellular calcium mobilization (FLIPR) upon Quisqualate stimulation in CHO cells stably expressing hmGluR1. As to conditions: against Quisqualate 1 μM (EC80). The test is classed as cell-based. The gist of the method:
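CHO cells stably expressing hmGluR1 were kept overnight in DMEM high glucose with GPT and 1 mM pyruvate, then loaded 2 h with Calcium 3 dye.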

The mark [1] stands for this setting: FLIPR calcium mobilization, read-out: IC50 Class.
Where [2] appears, read: class symbols, read-out: mGIuR 1 IC50.
[3] abbreviates: FLIPR calcium mobilization, read-out: mGluR1 IC50.

As usually defined, the IC50 is the concentration at which inhibition is half-maximal.

T1 sequence (Q13255 19-1194): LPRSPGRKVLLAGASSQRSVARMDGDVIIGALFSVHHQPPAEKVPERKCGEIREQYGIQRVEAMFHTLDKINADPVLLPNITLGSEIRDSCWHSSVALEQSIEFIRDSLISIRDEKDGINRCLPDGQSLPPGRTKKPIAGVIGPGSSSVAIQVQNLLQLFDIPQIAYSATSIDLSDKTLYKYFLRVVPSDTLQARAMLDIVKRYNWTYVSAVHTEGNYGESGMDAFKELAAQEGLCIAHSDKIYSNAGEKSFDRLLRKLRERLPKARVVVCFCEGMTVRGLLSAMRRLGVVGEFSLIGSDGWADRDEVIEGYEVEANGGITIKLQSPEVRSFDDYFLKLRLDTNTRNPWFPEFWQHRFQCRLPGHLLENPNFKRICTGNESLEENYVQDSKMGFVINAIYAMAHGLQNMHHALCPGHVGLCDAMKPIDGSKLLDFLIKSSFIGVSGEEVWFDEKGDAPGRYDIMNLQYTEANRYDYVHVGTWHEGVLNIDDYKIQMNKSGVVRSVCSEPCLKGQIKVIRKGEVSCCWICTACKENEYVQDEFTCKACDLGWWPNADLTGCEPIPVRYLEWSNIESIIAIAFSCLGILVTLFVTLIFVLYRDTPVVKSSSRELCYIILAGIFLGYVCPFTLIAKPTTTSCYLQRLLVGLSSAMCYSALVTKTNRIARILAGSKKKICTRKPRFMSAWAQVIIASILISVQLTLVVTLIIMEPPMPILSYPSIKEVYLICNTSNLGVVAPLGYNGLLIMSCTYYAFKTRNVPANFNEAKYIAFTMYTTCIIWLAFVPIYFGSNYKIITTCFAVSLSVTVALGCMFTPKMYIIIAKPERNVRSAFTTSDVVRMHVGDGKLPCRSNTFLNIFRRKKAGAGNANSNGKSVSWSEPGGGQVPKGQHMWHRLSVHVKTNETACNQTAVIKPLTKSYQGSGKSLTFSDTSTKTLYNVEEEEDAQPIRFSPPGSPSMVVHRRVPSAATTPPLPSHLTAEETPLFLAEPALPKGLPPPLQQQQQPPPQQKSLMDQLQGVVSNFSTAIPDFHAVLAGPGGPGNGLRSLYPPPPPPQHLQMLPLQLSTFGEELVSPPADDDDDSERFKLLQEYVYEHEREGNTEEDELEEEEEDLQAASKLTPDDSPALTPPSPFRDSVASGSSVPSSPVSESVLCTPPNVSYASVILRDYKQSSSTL

In the case of `COc1ccc(-n2cnc3c(sc4nccc(N5CC(O)C5)c43)c2=O)cc1` [28DJ], under setting [1], the half-maximal inhibitory concentration (IC50) fell in the range of 50 to 150 nM.
For `Cc1ccc(-n2cnc3c(sc4cccc(N(C)C)c43)c2=O)cc1` [103D], under setting [2], the IC50 fell in the range of 50 to 150 nM.
Regarding `COCCNc1ccnc2sc3c(=O)n(-c4ccc(C)cc4)cnc3c12` [28AZ], the concentration for half-maximal inhibition (IC50) under setting [2] was less than 50 nM.
On the same count and under the same terms, with `Cc1ccc(-n2cnc3c([nH]c4nccc(N(C)C)c43)c2=O)cc1` [135A] the figure was more than 1000 nM; with `Cc1ccc(-n2cnc3c(sc4nccc(NC[C@H](C)O)c43)c2=O)cc1` [28BB], less than 50 nM.
The same measure, in the same setting: next, `CCCCNc1ccnc2sc3c(=O)n(C4CCCCC4)cnc3c12` [28R]: 150 to 1000 nM.
On the same count and under the same terms, with `O=c1c2sc3c(ccc[n+]3[O-])c2ncn1-c1ccccc1` [12A] the figure was 150 to 1000 nM.
For the molecule `O=c1c2sc3ncnc(Nc4ccccc4)c3c2ncn1-c1ccc(F)cc1` [95FZ], the IC50 under setting [1] was more than 1000 nM.
As for `O=C1CCCN1c1ccnc2sc3c(=O)n(C4CCCCC4)cnc3c12` [30C], the IC50 under setting [2] was more than 1000 nM.
As for `Cc1ccc(-n2cnc3c(sc4cnnc(NCC(F)(F)F)c43)c2=O)cc1` [167G], the half-maximal inhibitory concentration (IC50) under setting [1] was more than 1000 nM.
As for `CN(CC(O)CO)c1ccnc2sc3c(=O)n(-c4ccc(Br)cc4)cnc3c12` (stereo not drawn) [28HU], the concentration for half-maximal inhibition (IC50) under setting [1] is less than 50 nM.
As for `CC1CCC(n2cnc3c(sc4nccc(N(C)C)c43)c2=O)CC1` (stereo not drawn) [15Z], the IC50 under setting [2] was less than 50 nM.
Take `COc1ccnc2sc3c(=O)n(-c4ccncc4)cnc3c12` [161C]: the IC50 under setting [1] is more than 1000 nM.
In the case of `Cc1ccc(-n2cnc3c(sc4nccc(N(C)C)c43)c2=O)cc1C#N` [7DP], under setting [2], the IC50 lay within 50 to 150 nM.
As to `CCc1ccc(-n2cnc3c(sc4nc(C)cc(N(C)C)c43)c2=O)cc1` [7CP], the half-inhibitory concentration (IC50) under setting [2] lay within 50 to 150 nM.
As to `COc1ccc(Nc2ncnc3sc4c(=O)n(C)cnc4c23)cc1` [95GN], under setting [1], the IC50 was more than 1000 nM.
Take `COc1ncnc2sc3c(=O)n(-c4ccc(C)cc4)cnc3c12` [95FN]: under setting [1], the IC50 was in the range of 150 to 1000 nM.
For the molecule `CCN(C)c1ccnc2sc3c(=O)n(C4CCCCC4)cnc3c12` [28Y], the IC50 under setting [2] is less than 50 nM.
Turning to `CCCCOc1ncnc2sc3c(=O)n(-c4ccc(OC)cc4)cnc3c12` [compound 191], the IC50 under setting [1] is more than 1000 nM.
The same measure, in the same setting: with `COc1ccnc2sc3c(=O)n(-c4ccc(C5CC5)cc4)cnc3c12` [137H] the figure was more than 1000 nM.
Same read-out and setting: with `CNc1c(CNC2CCC2)cnc2sc3c(=O)n(-c4ccc(OC)cc4)cnc3c12` [compound 208] the figure was 150 to 1000 nM; with `CN(CCO)c1ccnc2sc3c(=O)n(-c4ccc(F)cc4)cnc3c12` [28HH], 50 to 150 nM.
Regarding `CN(C)c1ccnc2sc3c(=O)n(-c4cccc(O)c4)cnc3c12` [7AV], the IC50 under setting [2] is less than 50 nM.
On the same count and under the same terms, next, `CN(C)c1ccnc2sc3c(=O)n(-c4ccc(C(N)=O)cc4)cnc3c12` [7AZ]: more than 1000 nM; `COc1ccc(-n2cnc3c(sc4nccc(N(C)C)c43)c2=O)c(C)c1` [7DI]: less than 50 nM.
Same read-out and setting: with `CN(C)c1c(C=O)cnc2sc3c(=O)n(C4CCCCC4)cnc3c12` [compound 45] the figure was less than 50 nM.
On to `Cc1ccc(-n2cnc3c(sc4nccc(NN)c43)c2=O)cc1` [28DK], for which, under setting [1], the 50% inhibitory concentration (IC50) lay in the range of 150 to 1000 nM.
Take `Cc1cc(N(C)C)c2c(n1)sc1c(=O)n(-c3ccc(Br)cc3)cnc12` [7CY]: the IC50 under setting [2] is less than 50 nM.
`CCNc1ncnc2sc3c(=O)n(-c4ccc(OC)cc4F)cnc3c12` [95BE]: the IC50 under setting [1] lay within 50 to 150 nM.
Same read-out and setting: with `CNc1c(C#N)cnc2sc3c(=O)n(-c4ccc(OC)cc4)cnc3c12` [28FQ] the figure was 50 to 150 nM.
As to `Cc1ccc(-n2cnc3c(sc4nccc(N(C)C)c43)c2=O)cc1Br` [7DQ], the half-maximal inhibitory concentration (IC50) under setting [2] is less than 50 nM.
Regarding `C=CCNc1ncnc2sc3c(=O)n(-c4ccc(OC)c(F)c4)cnc3c12` [95BN], the 50% inhibitory concentration (IC50) under setting [1] lay in the range of 50 to 150 nM.
The same measure, in the same setting: next, `Cc1ccc(-n2cnc3c(sc4nc(O)cc(N(C)C)c43)c2=O)cc1` [172A]: less than 50 nM.
For the molecule `COc1ccc(-n2cnc3c(sc4nccc(N(C)C)c43)c2=O)cc1Cl` [7T], under setting [2], the IC50 lay in the range of 50 to 150 nM.
As for `CCNc1ccnc2sc3c(=O)n(-c4ccc(C)cc4)c(C)nc3c12` [113H], under setting [2], the IC50 is less than 50 nM.
As for `COc1cccc(-n2cnc3c(sc4nc(N5CCOCC5)c5c(c43)CC(C)(C)OC5)c2=O)c1` [P-4], under setting [2], the IC50 lay within 150 to 1000 nM.
For `C=CCN(C)c1ccnc2sc3c(=O)n(-c4ccc(OC)cc4)cnc3c12` [28EA], the IC50 under setting [1] is less than 50 nM.
Turning to `CN(C)c1ccnc2sc3c(=O)n(-c4cccnc4)cnc3c12` [7O], the half-inhibitory concentration (IC50) under setting [2] was 50 to 150 nM.
In the case of `C=C(C)CNc1ncnc2sc3c(=O)n(-c4cccc(Cl)c4)cnc3c12` [95FK], under setting [1], the IC50 lay in the range of 50 to 150 nM.
In the case of `COc1ccc(-n2cnc3c(sc4ncnc(NC5CC5)c43)c2=O)c(C)c1` [95AW], the IC50 under setting [1] is less than 50 nM.
In the case of `O=c1c2sc3nccc(NCCCO)c3c2ncn1-c1ccc(Br)cc1` [28GQ], the IC50 under setting [1] was less than 50 nM and the IC50 under setting [3] was found to be 0.66 nM.
As to `CN(C)c1ccnc2sc3c(=O)n(-c4ccc(C#N)cc4)cnc3c12` [7K], under setting [2], the IC50 is less than 50 nM.
Same read-out and setting: next, `Cc1ccc(-n2cnc3c(sc4nccc(OC5CCCC5)c43)c2=O)cc1` [66C]: more than 1000 nM; `Cc1ccccc1-n1cnc2c(sc3nccc(N(C)C)c32)c1=O` [7CW]: 50 to 150 nM.
For `CN(C)c1ccnc2sc3c(=O)n(-c4ccc5c(c4)OCCO5)cnc3c12` [7AC], the IC50 under setting [3] came out at 1.84 nM and the IC50 under setting [2] was less than 50 nM.
In the case of `CNc1c(Cl)cnc2sc3c(=O)n(C4CCCCC4)cnc3c12` [compound 42], the IC50 under setting [2] was 50 to 150 nM.
Consider `CN(CC(O)CO)c1ccnc2sc3c(=O)n(-c4ccc(Cl)cc4)cnc3c12` (stereo not drawn) [28HQ], for which, under setting [1], the IC50 was in the range of 50 to 150 nM.
Same read-out and setting: next, `O=c1c2sc3nccc(NCC4CC4)c3c2ncn1-c1ccc2occc2c1` [28BX]: 150 to 1000 nM; `O=c1c2sc3ncnc(Nc4ccccc4)c3c2ncn1-c1ccc(Br)cc1` [95GF]: more than 1000 nM; `CCN(C)c1ccnc2sc3c(=O)n(-c4ccc(OC)cc4F)cnc3c12` [28BW]: less than 50 nM.
In the case of `O=c1c2sc3nccc(Cl)c3c2ncn1-c1ccccc1` [compound 13], the half-maximal inhibitory concentration (IC50) under setting [2] was 150 to 1000 nM.
As to `O=c1c2sc3nccc(NC4CC4)c3c2ncn1-c1ccc(OS(=O)(=O)C(F)(F)F)cc1` [28HT], under setting [1], the IC50 was more than 1000 nM.
The same measure, in the same setting: next, `Cc1ccc(-n2cnc3c(sc4nccc(NCC5CCCO5)c43)c2=O)cc1` (stereo not drawn) [28ET]: 50 to 150 nM.
`CN(C)c1ccnc2sc3c(=O)n(-c4nncs4)cnc3c12` [15X]: the IC50 under setting [2] is more than 1000 nM.
`C=CCc1ccnc2sc3c(=O)n(-c4ccc(Cl)cc4)cnc3c12` [178A]: the IC50 under setting [1] was 50 to 150 nM.
For the molecule `CCN(C)c1ccnc2sc3c(=O)n(-c4cccc(Cl)c4)cnc3c12` [28CA], under setting [1], the IC50 is less than 50 nM.
Still for that read-out and setting: next, `CN(CCO)c1ccnc2sc3c(=O)n(-c4ccc5c(c4)OCCO5)cnc3c12` [28CF]: less than 50 nM.
In the case of `CN(C)c1ccnc2sc3c(=O)n(C4CC4)cnc3c12` [15K], the IC50 under setting [2] was more than 1000 nM.
The same measure, in the same setting: with `CN(C)c1ccnc2sc3c(=O)n(Cc4ccccc4)cnc3c12` [7C] the figure was 50 to 150 nM.
As for `Cc1nn(C)c(C)c1-n1cnc2c(sc3nccc(N(C)C)c32)c1=O` [15AC], the IC50 under setting [2] is more than 1000 nM.
Same read-out and setting: next, `CNc1ccnc2sc3c(=O)n(C4CCCCC4)cnc3c12` [28X]: less than 50 nM; `CC(C)Oc1ccc(-n2cnc3c(sc4nccc(N(C)C)c43)c2=O)cc1` [7AQ]: more than 1000 nM.
Regarding `CC(C)c1ccnc2sc3c(=O)n(-c4ccc(Cl)cc4)cnc3c12` [29J], the half-inhibitory concentration (IC50) under setting [1] was less than 50 nM.
`COc1cc(-n2cnc3c(sc4nccc(N(C)C)c43)c2=O)cc(OC)c1OC` [7AF]: under setting [2], the IC50 is more than 1000 nM.
Same read-out and setting: with `CN(C)c1ccnc2sc3c(=O)n(-c4ccc(Br)cc4F)cnc3c12` [7DU] the figure was less than 50 nM.
Take `Cc1ccc(-n2cnc3c(sc4ncc(Br)c(NCCN)c43)c2=O)cc1` [28FM]: the IC50 under setting [1] is 150 to 1000 nM.
On to `CNc1c(C2CC2)cnc2sc3c(=O)n(-c4ccc(OC)cc4)cnc3c12` [137E], for which the IC50 under setting [1] is less than 50 nM.
On to `O=c1c2sc3nccc(NCCCCO)c3c2ncn1-c1ccc(Cl)cc1` [28GE], for which the IC50 was less than 50 nM under setting [1] and 0.28 nM under setting [3].
As for `CNc1ncnc2sc3c(=O)n(-c4ccc(Br)cc4)cnc3c12` [95BD], the IC50 under setting [1] was less than 50 nM.
Turning to `CN(C)c1ccnc2sc3c(=O)n(Cc4cccc(Cl)c4)cnc3c12` [7R], under setting [2], the IC50 was in the range of 150 to 1000 nM.
With `C#CCOc1ncnc2sc3c(=O)n(-c4ccc(C)cc4)cnc3c12` [66M], the IC50 under setting [1] is 50 to 150 nM.
Turning to `Cc1ccc(-n2cnc3c(sc4nccc(NC(C)(C)CO)c43)c2=O)cc1` [28EX], the IC50 under setting [1] is 50 to 150 nM.
The same measure, in the same setting: with `C#CCNc1ncnc2sc3c(=O)n(-c4ccc5c(c4)OCCO5)cnc3c12` [95EN] the figure was 50 to 150 nM.
Regarding `Cc1cc(-n2cnc3c(sc4nccc(N(C)C)c43)c2=O)ccc1I` [7EA], the IC50 under setting [2] was less than 50 nM.
Take `O=c1c2sc3ncnc(NC4CC4)c3c2ncn1-c1ccc2ncsc2c1` [95AZ]: the IC50 under setting [1] was less than 50 nM.
Regarding `C=CCNc1ccnc2sc3c(=O)n(-c4ccc(F)cc4)cnc3c12` [28EC], the IC50 under setting [1] was less than 50 nM.
Consider `CCN(C)c1ccnc2sc3c(=O)n(-c4ccc(Cl)cc4)cnc3c12` [28IC], for which the IC50 is less than 50 nM under setting [1] and 2.09 nM under setting [3].
For the molecule `C#CCNc1ccnc2sc3c(=O)n(-c4ccc(C)cc4)c(C)nc3c12` [113K], under setting [2], the IC50 was less than 50 nM.
`Cc1ccc(-n2cnc3c(sc4nccc(N(C)NS(C)(=O)=O)c43)c2=O)cc1` [73J]: under setting [1], the IC50 fell in the range of 150 to 1000 nM.
As to `COc1ccc(C(=O)Nc2ccnc3sc4c(=O)n(C5CCCCC5)cnc4c23)cc1` [73F], the IC50 under setting [2] was more than 1000 nM.
Take `Cc1cc(N(C)C)c2c(n1)sc1c(=O)n(-c3ccccc3)cnc12` [7DB]: the IC50 under setting [2] is less than 50 nM.
With `COc1ccnc2sc3c(=O)n(-c4ccc(Cl)cc4Cl)cnc3c12` [28FV], under setting [1], the IC50 was more than 1000 nM.
In the case of `CNc1ccnc2sc3c(=O)n(-c4ccc(OC)cc4)cnc3c12` [28I], the 50% inhibitory concentration (IC50) under setting [2] was less than 50 nM.
Same read-out and setting: next, `Cc1nc2ccc(-n3cnc4c(sc5nccc(N(C)C)c54)c3=O)cc2[nH]1` [7BV]: more than 1000 nM.
For the molecule `Cc1ccc(-n2cnc3c(sc4ncnc(NCc5cccs5)c43)c2=O)cc1` [95FV], the IC50 under setting [1] lay in the range of 150 to 1000 nM.
Regarding `O=c1c2sc3nccc(NC4CC4)c3c2ncn1-c1ccncc1` [28ED], the IC50 under setting [1] is 150 to 1000 nM.
